{"source": "patent US7625910B2", "about": "“Co-crystal” (AstraZeneca AB, priority 2006, dated 2009)", "key": {"Dynamic Vapour Sorption": {"test": "Dynamic Vapour Sorption", "format": "physicochemical", "conditions": "25° C.; for hygroscopicity: 0-95% RH, two cycles, batches from Method 1 and Method 2 (FIGS. 4 and 5)", "description": "Analytical Instrument: Surface Measurements Systems Dynamic Vapour Sorption Analyser. About 5 mg of material contained in a quartz holder at a specified temperature was subjected to humidified nitrogen at a flow rate of 200 ml/minute of nitrogen at 25° C. at the following relative humidities (RH): 0, 20, 40, 60, 80, 95, 80, 60, 40, 20, 0% RH in duplicate. The weight of the material at a particular relative humidity was monitored until it was stable according to a weight criteria of 0.002% weight change per minute averaged over 10 minutes. If the weight was still changing then it stayed at a particular relative humidity until the weight was stable (up to a maximum time of 12 hours)."}, "[1]": {"tested_on": "human colorectal (SW620, HCT116, Colo205) and lung (A549, Calu-6) tumour xenografts", "test": "tumour growth inhibition in human tumour xenografts", "format": "in vivo", "conditions": "panel of human colorectal (SW620, HCT116, Colo205) and lung (A549, Calu-6) tumour xenografts; with statistical significance"}, "[2]": {"test": "pro-drug conversion in human plasma", "format": "in vitro ADME"}}}
{"smiles": "CCN(CCCOc1ccc2c(Nc3cc(CC(=O)Nc4cccc(F)c4)[nH]n3)ncnc2c1)CCOP(=O)(O)O.O=C(O)/C=C\\C(=O)O", "note": "[AZD1152 maleate co-crystal, 2-{ethyl[3-({4-[(5-{2-[(3-fluorophenyl)amino]-2-oxoethyl}-1H-pyrazol-3-yl)amino]quinazolin-7-yl}oxy)propyl]amino}ethyl dihydrogen phosphate.maleate]", "values": [{"measurement": "hygroscopicity", "setting": "Dynamic Vapour Sorption", "value": "non-hygroscopic"}, {"measurement": "hygroscopicity", "setting": "Dynamic Vapour Sorption; listed as maleate co-crystal of AZD1152", "value": "substantially non-hygroscopic"}]}
{"smiles": "CCN(CCCOc1ccc2c(Nc3cc(CC(=O)Nc4cccc(F)c4)n[nH]3)ncnc2c1)CCOP(=O)(O)O", "note": "[AZD1152, 2-{ethyl[3-({4-[(5-{2-[(3-fluorophenyl)amino]-2-oxoethyl}-1H-pyrazol-3-yl)amino]quinazolin-7-yl}oxy)propyl]amino}ethyl dihydrogen phosphate]", "values": [{"measurement": "level of water (hydration state) with relative humidity", "setting": "Dynamic Vapour Sorption; 0-95% RH (FIG. 6), dehydrated to tetrahydrated state and higher", "value": "quite variable depending on the relative humidity of storage"}, {"measurement": "inhibition of tumour growth", "setting": "[1]", "value": "inhibit tumour growth"}, {"measurement": "conversion of pro-drug to active moiety AZD1152 HQPA", "setting": "[2]", "value": "rapidly and completely converted"}]}
